The record followed here is US20130266663A1, “SOX9 INHIBITORS” (priority 2010, published 2013).

Assay [1] has as its system SOX9 target genes. The assay can be described thus: Real-time PCR of SOX9 target genes after SCI, chlorpromazine i.p. once a day for 7 days. It counts as in vivo, rat. How it is done: In the context of rodent studies, administration of chlorpromazine was assessed using delivery by intraperitoneal injection (as described in Example 3) and intrathecal miniosmotic pump (as described in Example 5). In summary, three doses of chlorpromazine were given i.p. (2 mg/kg, 4 mg/kg and 6 mg/kg) once a day for 7 days. The rats were then sacrificed and realtime pCR analysis of SOX9, GFAP. XT1, link protein, collagen 2A, aggrecan and brevican was conducted on a spinal cord sample normalizing to 18S.
(Quantitative PCR measures a nucleic acid by following its amplification.)

For assay [2], the system named is rats subject to spinal cord injury. Description: Behavioral testing (BBB scale) after spinal cord injury. It counts as in vivo. The conditions noted are these: rat SCI, 0.35 mg/ml and 3.5 mg/ml for 7 days via intrathecal miniosmotic pump; saline controls no improvement. As for the experimental part:
As examples of the general utility of chemical compounds for general CNS damage and repair, chlorpromazine was assessed in rodent models of spinal cord injury and stroke (MCAO). […] Briefly, rats were subject to spinal cord injury as described and administered chlropromzaine at 0.35 mg/ml and 3.5 mg/ml for 7 days via the intrathecal miniosmotic pump. At 7 days, 4 rats were assessed for behavioral recovery, prior to being sacrificed for gene expression analyses as described above.
In these studies rats (n=16 per group) will receive the SOX9 inhibitor for 6 weeks at which time half of the animals will be processed for SOX9 target gene expression by Q-PCR (as described above) and half will be processed for immunohistochemistry. […] Locomotor recovery, chronic pain syndromes and autonomic function will be assessed in treated and control mice. Motor function will be evaluated once per week using the Basso, Beattie and Bresnahan (BBB) scale for scoring hind limb function (Basso 1995). The presence of mechanical allodynia (a pain syndrome in which innocuous stimuli are perceived as painful) will be assessed once a week by stimulating the backs of the mice with a modified 1.569 mN Semmes Weinstein monofilament at, and rostral, to the level of the injury. […] Finally autonomic function will be assessed by measuring the degree of autonomic dysreflexia in animals before being sacrificed. […]

Assay [3] concerns SOX9 target genes. Description: Quantitative RT-PCR of SOX9 target genes after SCI, intrathecal miniosmotic pump delivery for 7 days. It counts as in vivo, rat. As to conditions: spinal cord-injured rats, 0.35 mg/ml or 3.5 mg/ml. How it is done:
To assess, the intrathecal miniosmotic pump as a means of compound delivery, spinal cord-injured rats received either saline, 0.35 mg/ml or 3.5 mg/ml of chlorpromazine for 7 days. At 7 days the levels of SOX9 target gene expression including GFAP, Brevican, XT-1 and Hapln1 were measured by quantitative RT-PCR as previously described.

The subject of a further assay is Collagen IV. Description: Western blotting of astrocyte culture protein extract probed with anti-collagen IV. It is filed as cell-based, rat. As to conditions: 20 uM.
For assay [4], the system named is SOX9 target genes. The assay can be described thus: Short-term SOX9 target gene expression (Q-PCR) in injured cord after SCI. The conditions noted are these: rat SCI, 2 mg/kg ip 2 hours after injury, sacrificed twelve hours later. It counts as in vivo. How it is done: To validate the impact of the compounds on relevant conditions in rodents, a short-term experiment was performed to see whether chlorpromazine might reduce SOX9 target gene expression in vivo. […] Twelve hours later the rats were sacrificed and RNA was isolated from a 5 mm segment of their injured cords centered on the lesion. […] Specifically, the decrease in the expression of GFAP indicates a lower level of astrocyte activation.
Twelve hours later the rats were sacrificed and RNA was isolated from a 5 mm segment of their injured cords centered on the lesion.

Assay [5] relates to SOX9 target genes. The assay can be described thus: Q-PCR of SOX9 target gene expression in aged primary astrocyte cultures. It is filed as cell-based, rat. An excerpt:
Another approach to modulating the capacity of calmodulin to transport SOX9 into the nucleus is via competitive inhibition of calmodulin binding. To that effect, a novel peptide (SOX-CAL) was generated to specifically block the calmodulin SOX9 binding site. The SOX-CAL peptide sequence, […] (SEQ ID NO.8), corresponds with the calmodulin binding sequence in SOX9. To ensure the peptide's entry into the cell, it was synthesized fused to the protein transduction domain of the HIV-1 Tat protein. […] This analysis was performed in contrast to the control FLAG-TAT peptide.
Antagonists to TRPV4 cation channel were tested to determine their ability to decrease the activity of SOX9 in astrocytes. The effect of TRPV4 antagonists on SOX9 function was evaluated in cultured rat astrocytes transfected with pGL4.1 4×48 Col2a1. The day after transfection, cells were treated for 24 h with 2-APB (100 μM) or ruthenium red (10 μM) before the luciferase assay was performed. The broad-spectrum transient receptor potential (TRP) channel antagonist 2-APB inhibited SOX9 activity by ˜70%, while the vanniloid subfamily-specific TRP antagonist ruthenium red inhibited SOX9 activity by ˜25%. With respect to SOX9 target genes, Q-PCR analysis of aged primary astrocyte cultures was performed to determine the impact of the TRPV4 antagonists on SOX9. Treatment with ruthenium red specifically reduces aggrecan and Col4a expression by 40% and 50%, respectively (FIG. 6B), while 2-APB reduces XT-1, HAPLN1, aggrecan, Col2a, and Col4a by 50%, 70%, 80%, 50%, and 60% respectively (FIG. 6B, C), in rat primary astrocytes after a 48 hour exposure (n=3). […] Based on the role that the TRP channels serve in modulating calcium levels, and therefore calmodulin activity, the effect of the TRP channel blockers on SOX9 activity appears to be indirect.

[6] abbreviates: rat SCI, i.p. 2, 4 and 6 mg/kg once a day for 7 days, normalized to 18S.

Regarding `CN(C)CCCN1c2ccccc2Sc2ccc(Cl)cc21` [chlorpromazine], the “impact on target gene expression” value in the assay with SOX9 target genes [1] (at 2 and 4 mg/kg administration, i.p., 7 days) was “apparent impact on target gene expression”. Moreover, in the assay with SOX9 target genes [1] (setting [6]), the “expression of Aggrecan” value was “reduces the expression”, the “expression of Brevican” value was “reduces the expression”, the “expression of GFAP” value is reported as “reduces the expression” and the “expression of HAPLN1” value was “reduces the expression”. In the assay on SOX9 target genes [1] (setting [6]), the “expression of SOX9” value is “reduces the expression”, the “expression of XT-1” value is “reduces the expression” and the “expression of type 2A Collagen” value is recorded as “reduces the expression”. Further, in assay [2], the “locomoter function score (BBB scale)” value is “non-zero scores”. Moreover, in the assay with SOX9 target genes [3], the “SOX9 target gene expression including GFAP, Brevican, XT-1 and Hapln1” value is on record as “improved anticipated outcome at 3.5 mg/ml of drug”. Further, in the assay on Collagen IV, the “level of collagen IV (Western blot)” value is on record as “reduced level of collagen”. In addition, in the assay with SOX9 target genes [4], the “CSPG Aggrecan expression” value is reported as “significant decrease”, the “Type II collagen expression” value is “reduced”, the “Type IV collagen expression” value is given as “reduced” and the “expression of GFAP” value is recorded as “decrease”. In addition, the “expression of scar generating factors” value with SOX9 target genes [4] is “decreased expression”. In the assay with SOX9 target genes [5] (20 uM, 48 hours, vs vehicle), the “expression of C4ST” value was “significantly reduced”, the “expression of XT1” value is “significantly reduced” and the “expression of XT2” value is listed as “significantly reduced”. Moreover, the “SOX9 target genes expression” value in the assay on SOX9 target genes [5] (longer treatments (1 week)) is listed as “even more profound reductions”.
